How the values were obtained:
[1] = Cytotoxicity against monkey LLC-MK2 cells incubated for 72 hrs by MTT assay; format: toxicity, cell-based, Macaca mulatta; details: rhesus monkey
Trypanosoma cruzi = assay: Antitrypanosomal activity against Trypanosoma cruzi Tulahuen lacZ expressing beta-galactosidase amastigotes infected in monkey LLC-MK2 cells assessed as inhibition of amastigotes pre-infected in cells for 48 hrs followed by compound addition and measured after 72 hrs by CPRG reagent based absorbance analysis; format: functional, organism-based
[2] = Selectivity index, ratio of CC50 for monkey LLC-MK2 cells to IC50 for Trypanosoma cruzi Tulahuen lacZ expressing beta-galactosidase amastigotes infected monkey LLC-MK2 cells; format: toxicity; details: read-out: Ratio CC50/IC50
Leishmania amazonensis = assay: Antileishmanial activity against Leishmania amazonensis IFLA/BR/1967/PH8 amastigotes infected in mouse peritoneal macrophage assessed as inhibition of parasite growth pre-infected in cells for 4 hrs followed by compound addition and measured after 24 hrs by Giemsa staining based analysis; format: functional, organism-based; details: IFLA/BR/1967/PH8, Peritoneal macrophage
[3] = Selectivity index, ratio of CC50 for cytotoxicity against monkey LLC-MK2 cells to IC50 for antileishmanial activity against Leishmania amazonensis IFLA/BR/1967/PH8 amastigotes infected in mouse peritoneal macrophage; format: toxicity, cell-based; details: read-out: Ratio CC50/IC50

Compound | CC50 at 72 h [1] [µM] | IC50 (Trypanosoma cruzi) [µM] | selectivity ratio [2] | IC50 (Leishmania amazonensis) [µM] | selectivity ratio [3]
O=[N+]([O-])c1nccn1Cc1cc(-c2ccc(Br)cc2)no1 | 43 | 5.1 | 8.4 | 17.4 | > 2.5
N#Cc1cccc(-c2cc(Cn3ccnc3[N+](=O)[O-])on2)c1 | > 50 | 40.4 | > 1.2 | 36.6 | > 1.4
COc1cccc(-c2cc(Cn3ccnc3[N+](=O)[O-])on2)c1 | > 50 | 11.2 | > 4.4 | 12.5 | > 4
N=C(N)c1ccc(OCCCCCOc2ccc(C(=N)N)cc2)cc1 [PENTAMIDINE] | – | – | – | 16.8 | –
O=[N+]([O-])c1nccn1Cc1cc(-c2ccc(F)c(F)c2)no1 | > 50 | 6.5 | > 7.6 | 17.7 | > 2.8
COc1ccc(-c2cc(Cn3ccnc3[N+](=O)[O-])on2)cc1Cl | > 50 | 1 | > 49 | 31.3 | > 1.6
COc1cc(-c2cc(Cn3ccnc3[N+](=O)[O-])on2)cc(OC)c1OC | > 50 | 1.9 | > 25.9 | 14.6 | > 3.4
C[C@@H]1[C@H](O)[C@@H](C)/C=C/C=C/C=C/C=C/C=C/C=C/C=C/[C@H](O[C@@H]2O[C@H](C)[C@@H](O)[C@H](N)[C@@H]2O)C[C@@H]2O[C@](O)(C[C@@H](O)C[C@@H](O)[C@H](O)CC[C@@H](O)C[C@@H](O)CC(=O)O[C@H]1C)C[C@H](O)[C@H]2C(=O)O [AMPHOTERICIN B] | 22.8 | – | – | 2.3 | 9.87
COc1cc(-c2cc(-c3cc(OC)c(OC)c(OC)c3)on2)cc(OC)c1OC | – | – | – | 2.9 | –
COc1cc(-n2cc(-c3ccc4c(c3)OCO4)nn2)cc(OC)c1OC | – | – | – | 4.4 | –
COc1cc(OC)cc(-c2cc(Cn3ccnc3[N+](=O)[O-])on2)c1 | > 50 | 6 | > 8.3 | 10.1 | > 4.9
O=[N+]([O-])c1nccn1Cc1cc(-c2ccc(N3CCCC3)cc2)no1 | > 50 | 2.3 | > 21.7 | 9.9 | > 5
N#Cc1ccc(-c2cc(Cn3ccnc3[N+](=O)[O-])on2)cc1 | > 50 | > 100 | > 0.6 | 34.6 | > 1.4
O=[N+]([O-])c1nccn1Cc1cc(-c2ccncc2)no1 | > 50 | 3.1 | > 16.3 | 16.3 | > 3
O=[N+]([O-])c1nccn1Cc1cc(-c2ccc(N3CCOCC3)cc2)no1 | > 50 | 2.8 | > 18 | 54.1 | > 0.9
COc1ccc(-c2cc(-c3cc(OC)c(OC)c(OC)c3)no2)cc1OC | – | – | – | 0.7 | –
COc1cc(-c2cn(-c3cc(OC)c(OC)c(OC)c3)nn2)cc(OC)c1OC | – | – | – | 9.4 | –
O=[N+]([O-])c1nccn1Cc1cc(-c2ccccn2)no1 | > 50 | 7.5 | > 6.7 | 37.8 | > 1.3
Nc1ccc(-c2cc(Cn3ccnc3[N+](=O)[O-])on2)cc1 | > 50 | 6.2 | > 8.1 | 21.7 | > 2.3
O=[N+]([O-])c1nccn1Cc1cc(-c2ccccc2)no1 | > 50 | 4 | > 12.3 | 33.1 | > 1.5

Compound | CC50 at 72 h [1] [µM] | IC50 (Trypanosoma cruzi) [µM] | selectivity ratio [2] | IC50 (Leishmania amazonensis) [µM] | selectivity ratio [3]
O=[N+]([O-])c1nccn1Cc1cc(-c2ccc(Cl)cc2)no1 | 48 | 1.5 | 32.5 | 26.6 | 1.8
O=[N+]([O-])c1cccc(-c2cc(Cn3ccnc3[N+](=O)[O-])on2)c1 | > 50 | 5.3 | > 9.4 | 35.1 | > 1.4
O=[N+]([O-])c1nccn1Cc1cc(-c2ccc(OC(F)(F)F)cc2)no1 | > 50 | 15.2 | > 3.3 | 35.6 | > 1.4
O=[N+]([O-])c1nccn1Cc1cc(-c2ccc(F)cc2)no1 | > 50 | 3.3 | > 15.3 | 24.2 | > 2.1
CSc1ccc(-c2cc(Cn3ccnc3[N+](=O)[O-])on2)cc1 | > 50 | 31.4 | > 1.6 | 22.4 | > 2.2
COc1ccccc1-c1cc(Cn2ccnc2[N+](=O)[O-])on1 | > 50 | 4.6 | > 10.9 | 12.7 | > 3.9
Cc1ccc(-c2cc(Cn3ccnc3[N+](=O)[O-])on2)cc1 | > 50 | 9.3 | > 5.4 | 26.7 | > 1.9
COc1ccc(-c2cc(-c3cc(OC)c(OC)c(OC)c3)on2)cc1OC | – | – | – | 0.4 | –
O=[N+]([O-])c1nccn1Cc1cc(-c2cccnc2)no1 | > 50 | 7.8 | > 6.4 | 73.8 | > 0.7
COc1ccc(-c2cc(Cn3ccnc3[N+](=O)[O-])on2)cc1O | > 50 | 3 | > 16.6 | 17.1 | > 2.9
COc1ccc(-c2cc(Cn3ccnc3[N+](=O)[O-])on2)cc1 | > 50 | 1.9 | > 25.6 | 17.3 | > 2.9
O=[N+]([O-])c1nccn1Cc1cc(-c2ccc(N3CCCCC3)cc2)no1 | > 50 | 7.5 | > 6.7 | 31.1 | > 1.6
O=[N+]([O-])c1nccn1Cc1cc(-c2ccc(Cl)c(Cl)c2)no1 | > 50 | 2.2 | > 22.2 | 18.9 | > 2.6
O=[N+]([O-])c1nccn1Cc1cc(-c2ccc(C(F)(F)F)cc2)no1 | 18.9 | 23 | 0.8 | 18 | 1
O=[N+]([O-])c1nccn1Cc1cc(-c2cccc(Cl)c2)no1 | > 50 | 9.3 | > 5.3 | 10.2 | > 4.9
COc1cc(-c2cc(-c3ccc4c(c3)OCO4)no2)cc(OC)c1OC | – | – | – | 1.4 | –
O=[N+]([O-])c1ccc(-c2cc(Cn3ccnc3[N+](=O)[O-])on2)cc1 | 46.1 | 18.3 | 2.5 | 32.4 | 1.4
O=[N+]([O-])c1nccn1Cc1cc(-c2ccc(N3CCN(c4ccccc4)CC3)cc2)no1 | > 50 | > 100 | > 1 | > 100 | > 0.5
COc1ccc(-c2cn(-c3cc(OC)c(OC)c(OC)c3)nn2)cc1OC | – | – | – | 5.6 | –
COc1ccc(-n2cc(-c3cc(OC)c(OC)c(OC)c3)nn2)cc1OC | – | – | – | 29.2 | –
